Experimental data: article PMC5011342, “A high throughput drug screening assay to identify compounds that promote oligodendrocyte differentiation using acutely dissociated and purified oligodendrocyte precursor cells” (BMC Research Notes, 2016)
Read-outs that look alike come from different tables or passages of the source.

Tests used:
[1] = system: acutely dissociated and purified rat OPCs; assay: Acute OL differentiation assay (MBP expression/cell, immunofluorescent image quantification); assay type: cell-based; details: sheet "All OLga data"; for activation at 2 µM / activation at 10 µM: Rattus norvegicus
Description: In order to identify compounds with the potential to promote OL differentiation in vivo and thereby enhance remyelination, we first wanted to establish an in vitro assay system that would closely mimic conditions in vivo. To do this, we started by using OPCs acutely isolated from postnatal day 6–7 (P6–7) rat brains by O4 immunopanning. […] OPCs were plated directly onto a biological substrate (PDL/laminin) in 96-well view plates at moderate density to allow for sufficient room to expand processes during differentiation. We plated cells in serum-free medium lacking OPC mitogens (no PDGF or FGF) to allow a basal level of OL differentiation to commence, and as a positive control added thyroid hormone (T3, 40 ng/ml) to accelerate differentiation (Fig. 1, flow scheme).
Fig. 1 Flow scheme of the acute OL differentiation assay. a Purified oligodendrocyte precursor cells (OPCs) were cultured from P7 rat cortex and plated into PDL/laminin pre-coated 96-well plates. b One hour later test compounds were added. c OPC cultures with compound were maintained in culture for an additional 4 days. d On the 5th day with compound, cells were fixed and immunostained with anti-MBP antibodies and DAPI. e Images were acquired with automated fluorescence microscopy and scored phenotypically for OL differentiation (see “Methods” section)
To quantify the extent of OL differentiation occurring in treatment conditions, we measured the overall amount of MBP expression/cell (see “Methods” section). Figure 2a depicts the mask created over MBP staining under which the MBP expression was quantified. […]
All animal work was carried out in strict accordance with the recommendations in the Guide for the Care and Use of Laboratory Animals of the National Institutes of Health. The protocol was approved by the Institutional Use and Care and Use Committee at the Molecular Medicine Research Institute (Sunnyvale, CA). Animals used for OPC isolation in these studies were euthanized by decapitation. OPCs from brains of P6-P7 Sprague–Dawley rat pups (Charles River, Wilmington, MA, USA) were enriched by immunopanning as previously described (Dugas et al. 2006). Briefly, single cell suspensions were obtained from papain-digested neonatal brains and depleted of mature glial cells by successive panning with RAN-2- and GalC-coated plates, followed by enrichment for OPCs using O4-coated plates. OPCs were plated in differentiation media (DMEM, 100 U/ml Penicillin/100 µg/ml streptomycin, 2 mM L-glutamine, 1 mM Na pyruvate, 5 µg/ml insulin, 5 µg/ml N-acetyl-L-cysteine, 1× trace elements B,10 ng/ml d-Biotin, 100 µg/ml BSA, 100 µg/ml apo-transferrin, 16 µg/ml putrescine, 60 ng/ml progesterone, 40 ng/ml sodium selenite 5 ng/ml forskolin, 10 ng/ml CNTF, 1 ng/ml NT-3).
Acutely enriched OPCs were plated in differentiation media at 5000 cells/well into PDL/laminin coated 96-well view plates and centrifuged at 200×g to facilitate cell attachment, survival, and even distribution of OPCs. OPCs were pre-incubated for 1–2 h at 37 °C in 10 % CO2, followed by the addition of test compounds in quadruplicate. Controls were added in eight replicate wells, negative control = 0.1 % DMSO; positive control = 40 ng/ml T3. The day of OPC plating was considered DIV0. On DIV4, cells were fixed, immunostained for myelin basic protein (MBP) expression, imaged and quantified as described below.

expanded OPCs = assay: cells; details: for viability at 0.1 µM / viability at 1 µM / viability at 10 µM: Rattus norvegicus, 72 h
Description: Having established a consistent assay for measuring OL differentiation in vitro, the next step was to utilize this assay to assess the ability of a wide array of compounds to promote OL differentiation. Prior to library screening, we first established the maximum non-toxic dose of each compound in the library. […] Therefore, we added each compound in the NIH clinical collection (NCC) library to OPCs at 10, 1, and 0.1 µM concentrations. Three days later, we assessed viability of the treated cells by measuring AlamarBlue fluorescence, a measure of cell viability (see “Methods” section). […] Appropriately, we established three sets of screening concentrations for library compounds: non-toxic compounds were tested at 10 and 2 µM, slightly toxic compounds (only toxic at 10 µM) were tested at 2 and 0.4 µM, and very toxic compounds were tested at 0.4 and 0.08 µM.
OPCs were expanded in vitro by seeding into PDL-coated tissue culture flasks at 1000–2000 cells/cm^2 in differentiation media supplemented with 10 ng/ml PDGF-AA. Proliferating OPCs were fed every 2–3 days and supplemented with 2–3× concentration of PDGF as needed to prevent OPC differentiation. After 6–7 days of proliferation, OPCs were harvested by trypsinization, plated into PDL-coated 96-well Falcon plates and centrifuged at 200×g to facilitate cell attachment, survival, and even distribution of cells. Expanded OPCs were seeded in differentiation media at 10,000 cells/well and incubated for 2 h at 37 °C, 10 % CO2 prior to addition of compounds. The NCC library was diluted and added to cells at 10, 1, and 0.1 µM; each concentration was tested in quadruplicate. As a positive control for the induction of toxicity, 5 ng/ml tunicamycin was added to 8 wells in each plate. Three days later, a 1:10 dilution of alamarBlue® (AB) was added to each well and cells were incubated 4 h at 37 °C, 10 % CO2. AB fluorescence was measured using a PerkinElmer Victor II fluorescence microplate reader (PerkinElmer, Waltham, MA) with 560 nm excitation/590 nm emission filters. For library screening, the highest concentration of each compound was adjusted to a minimally toxic concentration based on this toxicity data. Compounds were additionally tested at a second concentration that was 1/5th of the top concentration. The final concentration of DMSO in each well was 0.1 %.

[2] = test compound at 2 uM, NCC library screen, relative to quetiapine, read-out: 2 uM (% Quet)
[3] = test compound at 10 uM, NCC library screen, relative to quetiapine, read-out: 10 uM (% Quet)
[4] = read-out: 0.1 µM (% DMSO), alamarBlue viability, NCC library compound at 0.1 µM, sheet "All Tox data"
[5] = read-out: 1 µM (% DMSO), alamarBlue viability, NCC library compound at 1 µM, sheet "All Tox data"
[6] = read-out: 10 µM (% DMSO), alamarBlue viability, NCC library compound at 10 µM, sheet "All Tox data"
[7] = alamarBlue viability, NCC library compound at 0.1 µM, sheet "All Tox data"
[8] = alamarBlue viability, NCC library compound at 1 µM, sheet "All Tox data"
[9] = alamarBlue viability, NCC library compound at 10 µM, sheet "All Tox data"
[10] = 2 uM test compound, relative to quetiapine, read-out: OL differentiation, 2 uM (% Quet)
[11] = 10 uM test compound, relative to quetiapine, read-out: OL differentiation, 10 uM (% Quet)

Work on `COc1ccc2[nH]cc(CCN)c2c1` [5-Methoxytryptamine] yielded an activation at 2 µM [1, 2] of 2.6%, an activation at 10 µM [1, 3] of 4.2% and a viability at 0.1 µM (expanded OPCs; [4]) of 82.9%. For the same compound, the viability at 1 µM (expanded OPCs; [5]) was 83.6% and the viability at 10 µM (expanded OPCs; [6]) was 78.8%.
For `CCCCCCCCCOc1ccc2[nH]cc(CCN)c2c1` [5-Nonyloxytryptamine], the “0.08 uM (% Quet)” value ([1]; test compound at 0.08 uM, NCC library screen, relative to quetiapine) was -24.6 % Quet, the “0.4 uM (% Quet)” value ([1]; test compound at 0.4 uM, NCC library screen, relative to quetiapine) was -339.9 % Quet and the “0.1 µM (% DMSO)” value (expanded OPCs; [7]) was 59.8 % DMSO. For the same compound, the “1 µM (% DMSO)” value (expanded OPCs; [8]) was 9.3 % DMSO and the “10 µM (% DMSO)” value (expanded OPCs; [9]) was 8.5 % DMSO.
Work on `Fc1cncnc1` [5-fluoropyrimidine] yielded an activation at 2 µM [1, 10] of -16.3%, an activation at 10 µM [1, 11] of -9.2% and a viability at 0.1 µM (expanded OPCs; [4]) of 89.9%. The viability at 1 µM (expanded OPCs; [5]) was 85.6% and the viability at 10 µM (expanded OPCs; [6]) was 80.4%.
With `Nc1ccc2cn[nH]c2c1` [6-Aminoindazole] the “2 uM (% Quet)” value ([1]; test compound at 2 uM, NCC library screen, relative to quetiapine) was -23.3 % Quet, the “10 uM (% Quet)” value ([1]; test compound at 10 uM, NCC library screen, relative to quetiapine) was -40.9 % Quet and the “0.1 µM (% DMSO)” value (expanded OPCs; [7]) was 85.3 % DMSO. The “1 µM (% DMSO)” value (expanded OPCs; [8]) was 87.5 % DMSO and the “10 µM (% DMSO)” value (expanded OPCs; [9]) was 73.6 % DMSO.
Work on `O=[N+]([O-])c1cccc2cn[nH]c12` [7-Nitroindazole] yielded an activation at 2 µM [1, 2] of -7.1%, an activation at 10 µM [1, 3] of 5.7% and a viability at 0.1 µM (expanded OPCs; [4]) of 84.2%. It also gave a viability at 1 µM (expanded OPCs; [5]) of 88.9% and a viability at 10 µM (expanded OPCs; [6]) of 89.1%.
With `CCCCC/C=C\C/C=C\C/C=C\C/C=C\CCCC(=O)Nc1ccc(O)cc1` [AM 404] the “OL differentiation, 0.08 uM (% Quet)” value ([1]; 0.08 uM test compound, relative to quetiapine) was -17.8 % Quet, the “OL differentiation, 0.4 uM (% Quet)” value ([1]; 0.4 uM test compound, relative to quetiapine) was -184.2 % Quet and the “0.1 µM (% DMSO)” value (expanded OPCs; alamarBlue viability of expanded OPCs, compound at 0.1 µM, sheet All Tox data) was 87.9 % DMSO. For the same compound, the “1 µM (% DMSO)” value (expanded OPCs; alamarBlue viability of expanded OPCs, compound at 1 µM, sheet All Tox data) was 33.1 % DMSO and the “10 µM (% DMSO)” value (expanded OPCs; alamarBlue viability of expanded OPCs, compound at 10 µM, sheet All Tox data) was 11.4 % DMSO.
`C[C@H]1O[C@H](O[C@H]2[C@H](O)[C@@H](O)[C@@H](O[C@H]3[C@H](O)[C@@H](O)C(O)O[C@@H]3CO)O[C@@H]2CO)[C@H](O)[C@@H](O)[C@@H]1N[C@H]1C=C(CO)[C@@H](O)[C@H](O)[C@H]1O` (stereo partly shown) [Acarbose] gave an activation at 2 µM [1, 10] of 17.5%, an activation at 10 µM [1, 11] of -6.6% and a viability at 0.1 µM (expanded OPCs; read-out: 0.1 µM (% DMSO), alamarBlue viability of expanded OPCs, compound at 0.1 µM, sheet All Tox data) of 88.8%. For the same compound, the viability at 1 µM (expanded OPCs; read-out: 1 µM (% DMSO), alamarBlue viability of expanded OPCs, compound at 1 µM, sheet All Tox data) was 92% and the viability at 10 µM (expanded OPCs; read-out: 10 µM (% DMSO), alamarBlue viability of expanded OPCs, compound at 10 µM, sheet All Tox data) was 93.2%.
`CCCC(=O)Nc1ccc(OCC(O)CNC(C)C)c(C(C)=O)c1` (stereo not shown) [Acebutolol] was tested, and the activation at 2 µM ([1]; test compound at 2 uM, MBP expression relative to quetiapine, NCC library screen, read-out: 2 uM (% Quet)) was 7.8%, the activation at 10 µM ([1]; test compound at 10 uM, MBP expression relative to quetiapine, NCC library screen, read-out: 10 uM (% Quet)) was -5.4% and the “0.1 µM (% DMSO)” value (expanded OPCs; alamarBlue viability of expanded OPCs, compound at 0.1 µM, relative to DMSO control) was 94.3 % DMSO. For the same compound, the “1 µM (% DMSO)” value (expanded OPCs; alamarBlue viability of expanded OPCs, compound at 1 µM, relative to DMSO control) was 111.2 % DMSO and the “10 µM (% DMSO)” value (expanded OPCs; alamarBlue viability of expanded OPCs, compound at 10 µM, relative to DMSO control) was 112.7 % DMSO.
